One compound from US20040067565A1, “Selective functionalization of hydrocarbons with isolated oxygenases and mediator based regeneration” (priority 2002, published 2004) can be followed below.

This assay addresses T1, Cytochrome C (cytC) (Equus caballus, UniProt P00004).
T1 construct: cytC- (from horse heart, Fluka, Buchs Switzerland); purchased Fluka, Buchs Switzerland; host or cells: horse heart
Description: [Cp*Rh(bpy)H]+ catalyzed, formate driven reduction of Cytochrome C (absorption at 550 nm). The assay is classed as biochemical, horse. The settings on record: for TF ([Cp*Rh(bpy)(H2O)]2+) / dc(CytC)red/dt: c(CytC) 31.2 μM, c(NaHCO2) 150 mM. How it is done: In a typical experiment potassium phosphate buffer (50 mM, pH 7.0, c(NaHCO2)=150 mM) is supplemented with cytC- (from horse heart, Fluka, Buchs Switzerland) and [Cp*Rh(bpy)(H2O)]^2+-stocksolutions to 1 ml final volume in a quartz kuvette and placed into a thermostatted (T=30° C.) UV-spectrophotometer (UNICAM). After addition of the components, the absorption at λ=550 nm is followed. Concentrations of reduced CytC were determined after background correction according to the law of Lamber-Beer utilizing a molar extinction coefficient for reduced CytC of […].
In another typical experiment, the reaction temperature was varied between 20 and 35° C.
To exclude stoichiometric interaction of [Cp*Rh(bpy)(H2O)]^2+ with cytC, in another experiment low c([Cp*Rh(bpy)(H2O)]^2+) were applied. In 50 ml degassed potassium phosphate buffer (50 mM, pH 7.0, c(NaHCO2)=150 mM) 10 μM ([Cp*Rh(bpy)(H2O)]^2+) were incubated with 80 μM cytC (FIG. 9).

Where [1] appears, read: T 20 °C, c([Cp*Rh(bpy)(H2O)]2+) 100 μM.
The mark [2] stands for this setting: T 30 °C, c([Cp*Rh(bpy)(H2O)]2+) 100 μM.
The mark [3] stands for this setting: T 35 °C, c([Cp*Rh(bpy)(H2O)]2+) 50 μM.

The structures appear in SMILES notation.

T1 sequence (P00004 whole entry): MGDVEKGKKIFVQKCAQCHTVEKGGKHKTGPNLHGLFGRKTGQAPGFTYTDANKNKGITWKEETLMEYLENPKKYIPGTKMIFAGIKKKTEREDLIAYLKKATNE

With `Cc1c(C)c(C)[c-](C)c1C.O.[Rh+3].c1ccc(-c2ccccn2)nc1` [[Cp*Rh(bpy)(H2O)]^2+], under “FIG. 9: 10 μM [Cp*Rh(bpy)(H2O)]2+, 80 μM cytC, 150 mM NaHCO2, 30 °C, degassed buffer, not optimized”, the total turnover number is reported as 6. Moreover, the “TF ([Cp*Rh(bpy)(H2O)]2+)” value turned out to be 4 h⁻¹ under setting [1], 21 h⁻¹ under setting [2] and 32 h⁻¹ under setting [3]. Besides, the “dc(CytC)red/dt” value under setting [1] was 0.4 mM * h^−, the “dc(CytC)red/dt” value under setting [2] stood at 2.1 mM * h^− and the “dc(CytC)red/dt” value under setting [3] is reported as 1.6 mM * h^−. In addition, the “Turnover frequencies as CytC reduction catalyst” value (depend on the reaction temperature (20-35 °C)) is 4-32 turnovers per hour.
